Experimental data: patent publication US20120059037A1, “SUBSTITUTED PYRIDINE DERIVATIVES AND THEIR MEDICAL USE” (NEUROSEARCH A/S, priority 2009, published 2012)
pEC50: −log10 of the molar value.

Biological target: T1, human Kv7.2+3 (Homo sapiens, UniProt O43525+O43526)
T1 construct: expressed in transfected cells; host or cells: HEK293
Test: FLIPR-based characterization of Kv7.2+3 modulators (thallium influx)
Format: cell-based
Settings: HEK293 cells over-expressing human Kv7.2+3; for pEC50: Tl+ influx, BTC-AM, FLIPR, relative to retigabine control responses; for Efficacy: maximal response relative to the reference (retigabine) response
Method: This experiment determines the ability of a test compound to modulate the activity of Kv7.2+3 channels heterologously expressed in human HEK293 cells. The ability is determined relative to retigabine. The activity is determined using a standard thallium (I) sensitive assay, e.g. using a fluorometric method in a Fluorescent Image Plate Reader (FLIPR) as described below in more detail.
Full concentration/response curves are generated and EC50 values are calculated based on max values. EC50 values (Effective Concentration) represent the concentration of the test substance, at which 50% of the channel activity is obtained when compared to retigabine control responses. Maximal response determined relative to the reference (retigabine) response is calculated.
Human HEK293 cells over-expressing human Kv7.2+3 are grown in culture medium (DMEM supplemented with 10% foetal bovine serum), in polystyrene culture flasks ([…]) in a humidified atmosphere of 5% CO2 in air, at 37° C. Cell confluence should be 80-90% on day of plating. Cells are rinsed with 4 ml of PBS (phosphate buffered saline) and incubated 2 min with 1 ml of Trypsin-EDTA. After addition of 25 ml of culture medium cells are re-suspended by trituration with a 25 ml pipette.
The cells are seeded at a density of ˜3×10^6 cells/ml (25 μl/well) in black-walled, clear bottom, 384-well plates pre-treated with 0.01 g/l poly-D-lysin (20 μl/well for ≧30 min). Plated cells were allowed to proliferate for 24 h before loading with dye.
BTC-AM (50 mg, Invitrogen) is added 25.5 μl DMSO. The BTC-AM stock solution (2 mM) is diluted to a final concentration of 2 μM in Cl^− free assay buffer (in mM: 140 Na^+-gluconate, 2.5 K^+-gluconate, 6 Ca2^+-gluconate, 1 Mg^2+ gluconate, 5 glucose, 10 HEPES, pH 7.3) containing 2 μM ouabain, 2 mM amaranth and 1 mM tartrazine.
The culture medium is aspirated from the wells, the cells are washed thrice in Cl^− free assay buffer, and 25 μl of the BTC-AM loading solution is added to each well. The cells are incubated at 37° C. for 60 min.
After the loading period, the Tl^+-sensitive BTC fluorescence signal is measured over time using a FLIPR.
• Temperature: Room temp. • First addition: 12 μl test or control compound after 15 sec at a rate of 30 μl/sec and starting height of 20 μl • Second addition: 12 μl stimulus buffer (Cl^− free assay buffer supplemented with 1 mM Tl2SO4, 5 mM K2SO4 as well as the quenchers amaranth (2 mM) and tartrazine (1 mM)) is added after an additional 3 minutes at a rate of 30 μl/sec and starting height of 30 μl • Reading intervals: First sequence—3 sec×5, 2 sec×24 and 5 sec×25 • Second sequence—1 sec×5, 2 sec×24 and 5 sec×36 Addition plates (compound plate and stimulus plate) are placed in positions 2 and 3, respectively. Cell plates are placed in position 1 and run using the “KCNQ (two additions)” program. FLIPR will then take the appropriate measurements in accordance with the interval settings above. Fluorescence obtained after stimulation is corrected for the mean basal fluorescence (in Cl^− free assay buffer).
Full concentration/response curves are generated and EC50 values (“Effective Concentration”; the concentration at which 50% of the channel activity is obtained when compared to retigabine control responses) are calculated based on peak values. Maximal response determined relative to the reference (retigabine) response is calculated.

Structure (SMILES) | pEC50 | Efficacy [%]
O=C(Cc1cc(F)cc(F)c1)Nc1ccc(NCc2ccc(Cl)nc2)nc1N1CCCC1 [Compound 1.1, N-{6-[(6-Chloro-pyridin-3-ylmethyl)-amino]-2-pyrrolidin-1-yl-pyridin-3-yl}-2-(3,5-difluoro-phenyl)-acetamide] | 7.18 | 100
O=C(Cc1cc(F)cc(F)c1)Nc1ccc(NCc2cccnc2)nc1N1CCCC1 [Compound 1.2, 2-(3,5-Difluoro-phenyl)-N-{6-[(pyridin-3-ylmethyl)-amino]-2-pyrrolidin-1-yl-pyridin-3-yl}-acetamide] | 7.70 | 108
CC(C)(C)CC(=O)Nc1ccc(NCc2ccc(Cl)nc2)nc1N1CCCC1 [Compound 1.3, N-{6-[(6-Chloro-pyridin-3-ylmethyl)-amino]-2-pyrrolidin-1-yl-pyridin-3-yl}-3,3-dimethyl-butyramide] | 7.18 | 100
